# pKi: −log10 of the molar value. Where “and” joins values, the source holds several entries; their conditions need not be identical. Equal values may be shown once.
# Target: Mitogen-activated protein kinase kinase kinase kinase 1 (Homo sapiens, UniProt Q92918)
# Experiment: Binding Assay: Lanth: For the binding assay, 4 ul 2×HPK1 and Eu-anti-GST antibody were added to each well of the assay plate using a Multidrop reagent dispenser. The solutions were incubated in a 23 C incubator for 1 h. To each well of the assay plate was added 4 ul 2× Tracer-222 using a Multidrop reagent dispenser. The solutions were again incubated in a 23 C incubator for 1 h. The results of the assay were read using an Envision plate reader with the following parameters: TR_FRET, 340ex/615 and 665em; 100 usec Delay; and 200 usec integration.
# Sequence of Mitogen-activated protein kinase kinase kinase kinase 1 (Q92918 whole entry): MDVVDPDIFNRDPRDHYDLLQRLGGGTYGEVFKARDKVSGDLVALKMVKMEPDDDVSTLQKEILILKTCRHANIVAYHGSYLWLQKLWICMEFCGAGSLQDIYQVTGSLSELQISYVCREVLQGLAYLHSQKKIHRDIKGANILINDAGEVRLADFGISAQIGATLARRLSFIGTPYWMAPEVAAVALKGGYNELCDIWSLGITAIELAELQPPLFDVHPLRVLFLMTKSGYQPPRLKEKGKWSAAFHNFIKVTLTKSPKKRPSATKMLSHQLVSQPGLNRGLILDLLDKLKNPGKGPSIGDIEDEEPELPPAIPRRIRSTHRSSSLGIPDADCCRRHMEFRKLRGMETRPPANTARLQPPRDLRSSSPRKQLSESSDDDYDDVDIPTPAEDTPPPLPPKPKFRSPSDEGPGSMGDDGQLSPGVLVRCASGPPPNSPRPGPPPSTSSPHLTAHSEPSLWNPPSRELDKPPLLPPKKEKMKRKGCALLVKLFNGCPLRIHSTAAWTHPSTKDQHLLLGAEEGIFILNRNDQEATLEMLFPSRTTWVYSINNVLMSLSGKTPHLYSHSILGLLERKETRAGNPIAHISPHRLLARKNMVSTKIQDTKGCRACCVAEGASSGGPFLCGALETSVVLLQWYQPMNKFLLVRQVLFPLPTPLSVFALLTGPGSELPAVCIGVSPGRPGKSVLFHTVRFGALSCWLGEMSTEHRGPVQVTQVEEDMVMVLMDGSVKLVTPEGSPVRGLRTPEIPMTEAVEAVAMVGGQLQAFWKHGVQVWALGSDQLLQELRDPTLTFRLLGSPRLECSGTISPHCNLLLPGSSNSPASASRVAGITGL
row,pKi,Structure (SMILES)
1,9.42,Cc1ccncc1-c1cc2cc(NC(=O)[C@@H]3C[C@@H]3F)ncc2c(N)n1 (racemic)
2,8.48,Cc1cc(-n2cccn2)ncc1-c1cc2cc(NC(=O)[C@H]3C[C@@H]3c3cnn(C)c3)ncc2c(N)n1
3,8.49,Cc1ncc(N)c(C)c1-c1cc2cc(NC(=O)[C@@H]3C[C@H]3C)ncc2c(N)n1 (racemic)
4,9.25,Cc1ccncc1-c1cc2cc(Nc3cnn([C@H]4CN(C5COC5)CC[C@@H]4O)c3)ncc2c(N)n1 (racemic)
5,8.55,"Cc1ccncc1-c1cc2cc(NC(=O)[C@@H]3C[C@H]3F)ncc2c(N)n1 (single isomer, unassigned)"
6,7.53,Cc1ccncc1-c1cc2cc(NC(=O)C(C)C)ncc2c(N)n1
7,9.72,Cc1ccncc1-c1nc(N)c2cnc(NC(=O)[C@@H]3C[C@H]3c3cn[nH]c3)cc2c1F (racemic)
8,7.38,Cc1cc(C(C)(C)O)ncc1-c1cc2cc(NC(=O)[C@@H]3C[C@@H]3F)ncc2c(N)n1 (racemic)
9,7.84,CC(=O)OC[C@]1(C)C[C@@H]1C(=O)Nc1cc2cc(-c3cnccc3C)nc(N)c2cn1 (racemic)
10,7.93 and 7.99,CCC1CCCN1c1cc2cc(NC(=O)[C@@H]3C[C@@H]3F)ncc2c(N)n1 (mixture of isomers)
11,8.22,Cc1ccncc1-c1cc2cc(NC(=O)[C@H]3[C@H](C)[C@@H]3CC#N)ncc2c(N)n1
12,9.30,N#CC[C@H]1C[C@@H]1C(=O)Nc1cc2cc(-c3cnccc3CCO)nc(N)c2cn1 (racemic)
13,7.80,Cc1[nH]ncc1-c1cc2cc(NC(=O)[C@@H]3C[C@H]3C(F)(F)F)ncc2c(N)n1 (racemic)
14,9.65,C=Cc1c(-c2cnccc2C)nc(N)c2cnc(NC(=O)[C@H]3C[C@@H]3CC#N)cc12 (racemic)
15,9.24,Cc1ccncc1-c1cc2cc(NC(=O)[C@H]3C[C@@H]3CC#N)ncc2c(N)n1 (racemic)
16,8.31,"Cc1ccncc1-c1cc2cc(NC(=O)[C@H]3[C@@H]4COC[C@@H]43)ncc2c(N)n1 (single isomer, unassigned)"
17,8.85,Cc1ccncc1-c1cc2cc(NC(=O)C3C[C@@H]3C(F)(F)F)ncc2c(N)n1 (some centres not stated)
18,8.14,CC(O)Cc1ccncc1-c1cc2cc(NC(=O)[C@H]3C[C@@H]3C#N)ncc2c(N)n1 (mixture of isomers)
19,8.67,COC1CN([C@H]2C[C@@H]3[C@H](C2)[C@H]3C(=O)Nc2cc3cc(-c4cnccc4C)nc(N)c3cn2)C1
20,9.12,Cc1ccncc1-c1cc2cc(NC(=O)[C@H]3[C@@H](C)[C@@H]3CC#N)ncc2c(N)n1
21,9.73,Cc1ccncc1-c1cc2cc(NC(=O)[C@@H]3[C@H](C)[C@H]3CC#N)ncc2c(N)n1
22,8.21,Cc1cc(C(=O)N(C)C)ncc1-c1cc2cc(NC(=O)[C@H]3C[C@@H]3c3cnn(C)c3)ncc2c(N)n1 (racemic)
23,8.50,Cn1cc([C@H]2C[C@@H]2C(=O)Nc2cc3cc(-c4cnc5c(=O)n(C)ncc5c4)nc(N)c3cn2)cn1 (racemic)
24,10.33,Cc1ccncc1-c1nc(N)c2cnc(NC(=O)[C@@H]3C[C@H]3c3cn[nH]c3)cc2c1Cl (racemic)
25,7.41,Cc1c(-c2cc3cc(NC(=O)[C@H]4C[C@@H]4C#N)ncc3c(N)n2)cncc1C(F)F (racemic)
26,8.19,N#C[C@@H]1C[C@H]1C(=O)Nc1cc2cc(-c3cnccc3C(F)(F)F)nc(N)c2cn1 (racemic)

row,pKi,Structure (SMILES)
1,8.76,Cc1cc(N2CCC2=O)ncc1-c1cc2cc(NC(=O)[C@H]3C[C@@H]3c3cnn(C)c3)ncc2c(N)n1
2,6.76,CCC1CCCN1c1cc2cc(NC(=O)[C@H]3C[C@H]3F)ncc2c(N)n1 (mixture of isomers)
3,8.96,Cc1ccncc1-c1cc2cc(NC(=O)[C@H]3C[C@@H]3CO)ncc2c(N)n1 (racemic)
4,9.95,Cc1ccc(F)cc1-c1cc2cc(NC(=O)[C@H]3C[C@@H]3c3cnn(C)c3)ncc2c(N)n1 (racemic)
5,8.73,C[C@@H]1C[C@H]1C(=O)Nc1cc2cc(-c3cnn(C)c3)nc(N)c2cn1 (racemic)
6,8.36,Cc1ccncc1-c1nc(N)c2cnc(NC(=O)[C@H]3C[C@@H]3C#N)cc2c1F (racemic)
7,8.30,Cc1ccnc(C)c1-c1cc2cc(NC(=O)[C@@H]3C[C@@H]3F)ncc2c(N)n1 (racemic)
8,8.13,"CCc1ccncc1-c1cc2cc(NC(=O)[C@@H]3C[C@H]3C#N)ncc2c(N)n1 (single isomer, unassigned)"
9,7.97 and 8.49,CCc1ccncc1-c1cc2cc(NC(=O)[C@@H]3C[C@@H]3C#N)ncc2c(N)n1
10,9.29,COC(=O)c1cc(C)c(-c2cc3cc(NC(=O)[C@H]4C[C@@H]4c4cnn(C)c4)ncc3c(N)n2)cn1
11,8.88 and 9.23,CCc1ccncc1-c1cc2cc(NC(=O)[C@H]3C[C@@H]3C#N)ncc2c(N)n1
12,9.64,Cc1ccncc1-c1cc2cc(NC(=O)[C@@H]3C[C@H]3c3cnn(C)c3)ncc2c(N)n1 (racemic)
13,9.08,Cc1ccncc1-c1cc2cc(NC(=O)[C@@H]3[C@@H](C)[C@H]3CC#N)ncc2c(N)n1
14,6.36,CCc1cc(=O)n(C)cc1-c1cc2cc(NC(=O)[C@@H]3C[C@@H]3F)ncc2c(N)n1 (racemic)
15,7.05,Cc1cc(C)c(-c2cc3cc(NC(=O)[C@@H]4C[C@H]4C#N)ncc3c(N)n2)cc1C(N)=O (racemic)
16,7.67,COCCc1ccncc1-c1cc2cc(NC(=O)[C@H]3C[C@@H]3C#N)ncc2c(N)n1 (racemic)
17,9.87,Nc1nc(-c2cncc3c2OCCN3)cc2cc(NC(=O)[C@@H]3C[C@@H]3F)ncc12 (racemic)
18,7.21,Cc1ccncc1-c1cc2cc(NCC3CC3(F)F)ncc2c(N)n1 (racemic)
19,8.17,Cc1ccncc1-c1cc2cc(NC(=O)[C@@H]3C[C@]34CCNC4)ncc2c(N)n1 (racemic)
20,8.09,Cc1cc(C(=O)NCC(F)(F)F)ccc1-c1cc2cc(NC(=O)[C@@H]3C[C@H]3C#N)ncc2c(N)n1 (relative stereo)
21,7.00,Cn1ccc2cncc(-c3cc4cc(NC(=O)[C@@H]5C[C@@H]5F)ncc4c(N)n3)c21 (racemic)
22,8.96,Cc1c(N)cncc1-c1cc2cc(NC(=O)[C@H]3C[C@@H]3C(F)(F)F)ncc2c(N)n1 (racemic)
23,7.93,Cn1cc([C@H]2C[C@@H]2C(=O)Nc2cc3cc(-c4cnc(N)c(C(F)(F)F)c4)nc(N)c3cn2)cn1 (racemic)
24,8.62,Cc1ccncc1-c1cc2cc(NC(=O)[C@@H]3C[C@H]3CN)ncc2c(N)n1 (racemic)
25,6.79,CCc1ccncc1-c1cc2cc(NC(=O)[C@@H]3C[C@H]3C(=O)C3CC(O)C3)ncc2c(N)n1 (mixture of isomers)
26,9.01,Cc1ccncc1-c1cc2cc(NC(=O)[C@H]3[C@@H]4CC(N5CCOCC5)C[C@@H]43)ncc2c(N)n1 (some centres not stated)

row,pKi,Structure (SMILES)
1,7.72,Cc1ncc(-c2cc3cc(NC(=O)[C@@H]4C[C@H]4C#N)ncc3c(N)n2)n1C (relative stereo)
2,9.24,Cc1ccncc1-c1cc2cc(NC(=O)[C@@H]3C[C@H]3c3cc[nH]n3)ncc2c(N)n1 (racemic)
3,8.65,Cc1cc(-c2ccn(C)n2)ncc1-c1cc2cc(NC(=O)[C@H]3C[C@@H]3c3cnn(C)c3)ncc2c(N)n1
4,7.59,CCc1ccncc1-c1cc2cc(NC(=O)[C@@H]3C[C@@H]3C(N)=O)ncc2c(N)n1 (racemic)
5,8.55,Cc1cc2c(cc1-c1cc3cc(NC(=O)[C@@H]4C[C@@H]4F)ncc3c(N)n1)CC(=O)N2 (racemic)
6,8.64,Cc1ccncc1-c1cc2cc(NC(=O)[C@@H]3C[C@@H]3C)ncc2c(N)n1 (racemic)
7,8.24,CCc1cc(N)ncc1-c1cc2cc(NC(=O)[C@@H]3C[C@@H]3F)ncc2c(N)n1 (racemic)
8,7.74,Cc1cnc(CO)cc1-c1cc2cc(NC(=O)[C@@H]3C[C@@H]3F)ncc2c(N)n1 (racemic)
9,8.00,Cc1ccncc1-c1cc2cc(NC(=O)[C@H]3C[C@@H]3c3ncccn3)ncc2c(N)n1 (racemic)
10,9.01,CCOc1ccncc1-c1cc2cc(NC(=O)[C@H]3C[C@@H]3C#N)ncc2c(N)n1 (racemic)
11,7.65,Cc1cnc(C#N)cc1-c1cc2cc(NC(=O)[C@@H]3C[C@@H]3F)ncc2c(N)n1 (racemic)
12,8.93,Cc1cc(C(=O)OCc2ccccc2)ncc1-c1cc2cc(NC(=O)[C@H]3C[C@@H]3c3cnn(C)c3)ncc2c(N)n1 (racemic)
13,9.82,Cc1ccncc1-c1cc2cc(NC(=O)[C@@H]3C[C@H]3c3cnsc3)ncc2c(N)n1 (racemic)
14,8.87,Cc1ccncc1-c1cc2cc(NC(=O)C3CC34CC4)ncc2c(N)n1 (racemic)
15,9.81,Nc1nc(-c2cncc3c2CCN3)cc2cc(NC(=O)[C@@H]3C[C@@H]3F)ncc12 (racemic)
16,8.44,"CCc1ccncc1-c1cc2cc(NC(=O)[C@H]3C[C@H]3C#N)ncc2c(N)n1 (single isomer, unassigned)"
17,7.92,Cc1nn(C)c(C)c1-c1cc2cc(NC(=O)[C@H]3C[C@@H]3C(F)(F)F)ncc2c(N)n1 (racemic)
18,8.19,Cc1c[nH]c(=O)cc1-c1cc2cc(NC(=O)[C@@H]3C[C@@H]3F)ncc2c(N)n1 (racemic)
19,10.29,Cc1ccnc(-c2ccccc2)c1-c1cc2cc(NC(=O)[C@H]3C[C@@H]3CC#N)ncc2c(N)n1 (racemic)
20,8.39,"Cc1ccncc1-c1cc2cc(NC(=O)[C@@H]3C[C@H]3C#N)ncc2c(N)n1 (single isomer, unassigned)"
21,8.85,Cc1ccncc1-c1cc2cc(NC(=O)[C@@H]3C[C@H]3C(F)(F)F)ncc2c(N)n1 (racemic)
22,8.75,Nc1nc(-c2cncc3c2OCC(=O)N3)cc2cc(NC(=O)[C@@H]3C[C@@H]3F)ncc12 (racemic)
23,7.77,CC(=O)OC[C@@]1(C)C[C@@H]1C(=O)Nc1cc2cc(-c3cnccc3C)nc(N)c2cn1 (racemic)
24,8.31,CCc1cc(OC)ncc1-c1cc2cc(NC(=O)[C@@H]3C[C@@H]3F)ncc2c(N)n1 (racemic)
25,8.10,Cc1cc2[nH]cnc2cc1-c1cc2cc(NC(=O)[C@@H]3C[C@@H]3F)ncc2c(N)n1 (racemic)
